Measured values from patent EP0485111A2, “The use of lipoxygenase and cyclooxygenase inhibitors as synergistic agents” (ZENECA LIMITED, priority 1990, dated 1992).

System: arachidonic acid induced inflammatory response
Test: arachidonic acid induced mouse ear inflammatory oedema test (mouse ear inflammatory model), oral dosing
Format: in vivo
Settings: for inhibition in vivo at 3 mg/kg / inhibition in vivo at 30 mg/kg / inhibition in vivo at 10 mg/kg / inhibition in vivo at 1 mg/kg: Mus musculus, po; for inhibition (anti-inflammatory effect of the CO inhibitors): CO inhibitor alone at 1-10 mg/kg orally
Procedure: According to the test method, groups of 10 mice (25-30 g each) were dosed orally with vehicle alone (a mixture of 0.5% hydroxypropylmethylcellulose, 0.1% polysorbate 80 and water), with the 5-LO inhibitor alone, with a CO-inhibitor alone, or with a combination of 5-LO and CO inhibitors. After a period of 1 hour arachidonic acid (1 mg in 10 microlitres of acetone) was applied topically to one ear of each mouse. After a further period of 1 hour the mice were killed and a disc-shaped portion (6 mm in diameter) was punched from each ear. Comparison of the weights of the ear-discs between the arachidonic acid treated and untreated ears allows the effect of each treatment to be determined. The effect of each test compound or combination of compounds is calculated as follows ('ear weight diff.' means the mean difference in the weights of the disc-shaped portions of ear punched from the arachidonic acid-treated ear compared to the untreated ear for each mouse):- [table]

[1] = summary of Examples 1 to 10, variable

## O=C(O)Cc1ccccc1Nc1c(Cl)cccc1Cl [D, diclofenac, reference compound]
Ex 8, D 3 mg/kg orally alone
  inhibition in vivo at 3 mg/kg: 11.1%
Ex 8, D 30 mg/kg orally alone
  inhibition in vivo at 30 mg/kg: 11.4%
Ex 9, D 3 mg/kg orally alone
  inhibition in vivo at 3 mg/kg: 5.9%
Ex 9, D 10 mg/kg orally alone
  inhibition in vivo at 10 mg/kg: 4.9%
Ex 9, D 30 mg/kg orally alone
  inhibition in vivo at 30 mg/kg: 17.8%
Ex 10, D 10 mg/kg orally alone
  inhibition in vivo at 10 mg/kg: 7.4%
Ex 10, D 30 mg/kg orally alone
  inhibition in vivo at 30 mg/kg: 10.5%
[1]
  inhibition (anti-inflammatory effect of the CO inhibitors): 0 to 55%

## CC(C(=O)O)c1ccc(-c2ccccc2)c(F)c1 (stereo not shown) [F, flurbiprofen, reference compound]
Ex 6, F 3 mg/kg orally alone ([1] 0 mg/kg)
  inhibition in vivo at 3 mg/kg: 14.6%
Ex 7, F 3 mg/kg orally alone ([1] 0 mg/kg)
  inhibition in vivo at 3 mg/kg: 7.6%
[1]
  inhibition (anti-inflammatory effect of the CO inhibitors): 0 to 55%

## COc1ccc2c(c1)c(CC(=O)O)c(C)n2C(=O)c1ccc(Cl)cc1 [I, indomethacin, reference compound]
Ex 1, I 10 mg/kg orally alone ([1] 0 mg/kg)
  inhibition in vivo at 10 mg/kg: 16.9%
Ex 2, I 10 mg/kg orally alone ([1] 0 mg/kg)
  inhibition in vivo at 10 mg/kg: 27.4%
Ex 3, I 3 mg/kg orally alone ([1] 0 mg/kg)
  inhibition in vivo at 3 mg/kg: 12.8%
Ex 4, I 3 mg/kg orally alone
  inhibition in vivo at 3 mg/kg: 15.3%
Ex 4, I 10 mg/kg orally alone
  inhibition in vivo at 10 mg/kg: 55.3%
Ex 5, I 3 mg/kg orally alone
  inhibition in vivo at 3 mg/kg: 18.2%
Ex 5, I 10 mg/kg orally alone
  inhibition in vivo at 10 mg/kg: 55.6%
Ex 11, I 10 mg/kg orally alone ([2] 0 mg/kg)
  inhibition in vivo at 10 mg/kg: 30%
Ex 12, I 1 mg/kg orally alone
  inhibition in vivo at 1 mg/kg: 13%
Ex 12, I 3 mg/kg orally alone
  inhibition in vivo at 3 mg/kg: 27%
Ex 12, I 10 mg/kg orally alone
  inhibition in vivo at 10 mg/kg: 33%
Ex 13, I 10 mg/kg orally alone ([3] 0 mg/kg), asterisk (*): not statistically significant
  inhibition in vivo at 10 mg/kg: 10%
Ex 14, I 10 mg/kg orally alone ([4] 0 mg/kg), asterisk (*): not statistically significant
  inhibition in vivo at 10 mg/kg: -2.5%
Ex 15, I 10 mg/kg orally alone ([5] 0 mg/kg)
  inhibition in vivo at 10 mg/kg: 27%
[1]
  inhibition (anti-inflammatory effect of the CO inhibitors): 0 to 55%

## COC1(c2cc(F)cc(OCc3ccc4c(ccc(=O)n4C)c3)c2)CCOCC1 [[1], 6-[(3-fluoro-5-[4-methoxy-3,4,5,6-tetrahydro-2H-pyran-4-yl]phenoxy)methyl]-1-methyl-2-quinolone]
Ex 1, [1] 1 mg/kg orally alone
  inhibition in vivo at 1 mg/kg: 14.6%
Ex 1, [1] 3 mg/kg orally alone
  inhibition in vivo at 3 mg/kg: 19.1%
Ex 1, [1] 10 mg/kg orally alone
  inhibition in vivo at 10 mg/kg: 47.2%
Ex 2, [1] 3 mg/kg orally alone
  inhibition in vivo at 3 mg/kg: 9.5%
Ex 2, [1] 10 mg/kg orally alone
  inhibition in vivo at 10 mg/kg: 0.5%
Ex 3, [1] 3 mg/kg orally alone
  inhibition in vivo at 3 mg/kg: 0%
Ex 3, [1] 10 mg/kg orally alone
  inhibition in vivo at 10 mg/kg: 15.6%
Ex 4, [1] 10 mg/kg orally alone (I 0 mg/kg)
  inhibition in vivo at 10 mg/kg: 44.4%
Ex 5, [1] 10 mg/kg orally alone (I 0 mg/kg)
  inhibition in vivo at 10 mg/kg: 15.2%
Ex 6, [1] 1 mg/kg orally alone
  inhibition in vivo at 1 mg/kg: 16.7%
Ex 6, [1] 3 mg/kg orally alone
  inhibition in vivo at 3 mg/kg: 20.8%
Ex 6, [1] 10 mg/kg orally alone
  inhibition in vivo at 10 mg/kg: 15.6%
Ex 7, [1] 1 mg/kg orally alone
  inhibition in vivo at 1 mg/kg: 16.2%
Ex 7, [1] 3 mg/kg orally alone
  inhibition in vivo at 3 mg/kg: 13.3%
Ex 7, [1] 10 mg/kg orally alone
  inhibition in vivo at 10 mg/kg: 11.4%
Ex 8, [1] 10 mg/kg orally alone (D 0 mg/kg)
  inhibition in vivo at 10 mg/kg: 12.5%
Ex 9, [1] 10 mg/kg orally alone (D 0 mg/kg)
  inhibition in vivo at 10 mg/kg: 25.7%
Ex 10, [1] 10 mg/kg orally alone (D 0 mg/kg)
  inhibition in vivo at 10 mg/kg: 3.2%
Summary of Examples 1 to 10, 5-LO inhibitor alone at 1-10 mg/kg orally, variable
  inhibition (anti-inflammatory effect of the 5-LO inhibitor): 0 to 47%

## COC1(c2cc(F)cc(Sc3ccc4c(c3)OCC(=O)N4C)c2)CCOCC1 [[2], 4-[5-fluoro-3-(4-methyl-3-oxo-2,3-dihydro-4H-1,4-benzoxazin-7-ylthio)phenyl]-4-methoxytetrahydropyran]
Ex 11, [2] 3 mg/kg orally alone
  inhibition in vivo at 3 mg/kg: 15%
Ex 11, [2] 10 mg/kg orally alone
  inhibition in vivo at 10 mg/kg: 22%
Ex 11, [2] 30 mg/kg orally alone
  inhibition in vivo at 30 mg/kg: 34%
Ex 12, [2] 30 mg/kg orally alone (I 0 mg/kg)
  inhibition in vivo at 30 mg/kg: 27%

## COC1(c2ccc(Sc3ccc4c(c3)CCC(=O)N4C)s2)CCOCC1 [[3], 4-methoxy-4-[5-(1-methyl-2-oxo-1,2,3,4-tetrahydroquinolin-6-ylthio)thien-2-yl]tetrahydropyran]
Ex 13, [3] 3 mg/kg orally alone, asterisk (*): not statistically significant
  inhibition in vivo at 3 mg/kg: 17%
Ex 13, [3] 10 mg/kg orally alone
  inhibition in vivo at 10 mg/kg: 15%
Ex 13, [3] 30 mg/kg orally alone, asterisk (*): not statistically significant
  inhibition in vivo at 30 mg/kg: 20%

## COC1(c2cc(F)cc(Sc3ccc4c(c3)CCC(=O)N4C)c2)CCOCC1 [[4], 4-[5-fluoro-3-(1-methyl-2-oxo-1,2,3,4-tetrahydroquinolin-6-ylthio)phenyl]-4-methoxytetrahydropyran]
Ex 14, [4] 3 mg/kg orally alone, asterisk (*): not statistically significant
  inhibition in vivo at 3 mg/kg: 5%
Ex 14, [4] 10 mg/kg orally alone
  inhibition in vivo at 10 mg/kg: 21%
Ex 14, [4] 30 mg/kg orally alone
  inhibition in vivo at 30 mg/kg: 22%

## COC1(c2cc(F)cc(Sc3ccc(C(F)(F)c4ccc(F)cc4)cc3)c2)CCOCC1 [[5], 4-[5-fluoro-3-(4-(4-fluoro-alpha,alpha-difluorobenzyl)phenylthio)phenyl]-4-methoxytetrahydropyran]
Ex 15, [5] 3 mg/kg orally alone, asterisk (*): not statistically significant
  inhibition in vivo at 3 mg/kg: 11%
Ex 15, [5] 10 mg/kg orally alone, asterisk (*): not statistically significant
  inhibition in vivo at 10 mg/kg: 16%
Ex 15, [5] 30 mg/kg orally alone, asterisk (*): not statistically significant
  inhibition in vivo at 30 mg/kg: 17%
